Drawing on patent US20260092071A1, “COMPOUNDS AND COMPOSITIONS AS SMARCA2/4 DEGRADERS AND USES THEREOF” (REGENTS OF THE UNIVERSITY OF MICHIGAN, priority 2022, published 2026), this text covers DC50 and Dmax for 10 molecules.

Structures are written as SMILES.

One test addresses SMARCA4 (Homo sapiens, UniProt P51532). Description: HiBiT assay for protein degradation, Hela SMARCA4-HiBiT cells (A series). Also noted: fuse HiBiT to the carboxy terminus of SMARCA2 (Promega CS302365) or SMARCA4 (Promega CS3023225); host or cells: HeLa (CRISPR/Cas9 HiBiT knock-in). It is filed as cell-based. As to conditions: Hela SMARCA4-HiBiT cells, 24 hours treatment; for DC50: read-out: SMARC A4 Hela HiBit DC50; for Dmax: read-out: SMARC A4 Hela HiBit Dmax. Put shortly: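 HeLa cells engineered by CRISPR/Cas9 to carry a HiBiT tag fused to the C-terminus of SMARCA4 (Promega CS3023225) were grown in DMEM supplemented with FBS and penicillin-streptomycin. After compound exposure, remaining SMARCA4 protein was quantified using the Nano-Glo® HiBiT Lytic Detection Assay (Promega N3050), and curves were fitted in GraphPad Prism.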

The next test concerns the target SMARCA2 (Homo sapiens, UniProt P51531). Description: HiBiT assay for protein degradation, Hela SMARCA2-HiBiT cells (A series).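 For SMARC A2 Hela HiBit Dmax (%): 24 h compound treatment.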 It counts as cell-based. Also noted: Hela cells were genetically modified via CRISPR/Cas9 to fuse HiBiT to the carboxy terminus of SMARCA2; host or cells: HeLa (CRISPR/Cas9 HiBiT knock-in). The following applies: Hela SMARCA2-HiBiT cells, 24 hours treatment; for DC50: read-out: SMARC A2 Hela HiBit DC50; for Dmax: read-out: SMARC A2 Hela HiBit Dmax (%). Put shortly:
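HeLa cells engineered by CRISPR/Cas9 to carry a HiBiT tag fused to the C-terminus of SMARCA2 (Promega CS302365) were grown in DMEM supplemented with FBS and penicillin-streptomycin. After treatment, remaining SMARCA2 protein was quantified with the Nano-Glo® HiBiT Lytic Detection Assay (Promega N3050), and curves were fitted in GraphPad Prism.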

Sequence of SMARCA4 (P51532 whole entry, the tested form may be a part): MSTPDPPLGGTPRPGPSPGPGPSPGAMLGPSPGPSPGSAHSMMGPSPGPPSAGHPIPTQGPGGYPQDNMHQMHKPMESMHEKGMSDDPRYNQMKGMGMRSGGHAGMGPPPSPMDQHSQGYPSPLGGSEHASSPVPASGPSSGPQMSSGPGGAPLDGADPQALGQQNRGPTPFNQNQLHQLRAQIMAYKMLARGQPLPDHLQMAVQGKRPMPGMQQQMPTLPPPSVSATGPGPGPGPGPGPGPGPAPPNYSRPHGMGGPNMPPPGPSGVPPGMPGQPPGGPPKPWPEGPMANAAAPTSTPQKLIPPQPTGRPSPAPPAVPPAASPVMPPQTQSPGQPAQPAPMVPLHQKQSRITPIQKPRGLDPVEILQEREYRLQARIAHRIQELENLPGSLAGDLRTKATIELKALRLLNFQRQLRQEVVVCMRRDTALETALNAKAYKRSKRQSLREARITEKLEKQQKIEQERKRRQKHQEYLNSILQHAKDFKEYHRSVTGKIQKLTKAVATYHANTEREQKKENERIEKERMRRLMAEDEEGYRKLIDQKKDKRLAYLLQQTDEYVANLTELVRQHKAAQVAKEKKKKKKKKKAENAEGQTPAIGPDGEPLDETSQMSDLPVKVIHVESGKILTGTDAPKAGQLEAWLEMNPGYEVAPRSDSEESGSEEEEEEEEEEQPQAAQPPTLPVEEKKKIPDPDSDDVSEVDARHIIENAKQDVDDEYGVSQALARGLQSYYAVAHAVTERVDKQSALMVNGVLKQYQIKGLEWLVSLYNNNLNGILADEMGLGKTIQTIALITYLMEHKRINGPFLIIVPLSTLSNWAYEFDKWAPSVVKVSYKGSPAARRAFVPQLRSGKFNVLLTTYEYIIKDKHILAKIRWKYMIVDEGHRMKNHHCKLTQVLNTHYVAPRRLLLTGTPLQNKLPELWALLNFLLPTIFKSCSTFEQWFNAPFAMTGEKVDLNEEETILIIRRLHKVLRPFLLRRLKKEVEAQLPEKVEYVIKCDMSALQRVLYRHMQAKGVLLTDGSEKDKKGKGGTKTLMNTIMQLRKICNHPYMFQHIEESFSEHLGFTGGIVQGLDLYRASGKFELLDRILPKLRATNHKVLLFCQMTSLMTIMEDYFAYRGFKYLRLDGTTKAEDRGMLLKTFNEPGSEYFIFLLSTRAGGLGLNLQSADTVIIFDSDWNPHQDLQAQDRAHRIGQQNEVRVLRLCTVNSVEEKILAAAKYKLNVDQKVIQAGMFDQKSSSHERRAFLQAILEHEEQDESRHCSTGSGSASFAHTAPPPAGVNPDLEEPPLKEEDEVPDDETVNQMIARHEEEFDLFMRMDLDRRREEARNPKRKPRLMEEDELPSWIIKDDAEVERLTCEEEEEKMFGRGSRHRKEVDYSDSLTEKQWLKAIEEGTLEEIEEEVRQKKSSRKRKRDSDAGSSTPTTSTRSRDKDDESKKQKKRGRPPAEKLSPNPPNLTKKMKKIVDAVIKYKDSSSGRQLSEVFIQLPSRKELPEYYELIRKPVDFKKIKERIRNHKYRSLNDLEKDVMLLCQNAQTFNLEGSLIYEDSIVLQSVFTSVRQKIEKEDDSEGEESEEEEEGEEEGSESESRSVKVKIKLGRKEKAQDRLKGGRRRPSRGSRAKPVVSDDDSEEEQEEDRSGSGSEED
Sequence of SMARCA2 (P51531 whole entry, the tested form may be a part): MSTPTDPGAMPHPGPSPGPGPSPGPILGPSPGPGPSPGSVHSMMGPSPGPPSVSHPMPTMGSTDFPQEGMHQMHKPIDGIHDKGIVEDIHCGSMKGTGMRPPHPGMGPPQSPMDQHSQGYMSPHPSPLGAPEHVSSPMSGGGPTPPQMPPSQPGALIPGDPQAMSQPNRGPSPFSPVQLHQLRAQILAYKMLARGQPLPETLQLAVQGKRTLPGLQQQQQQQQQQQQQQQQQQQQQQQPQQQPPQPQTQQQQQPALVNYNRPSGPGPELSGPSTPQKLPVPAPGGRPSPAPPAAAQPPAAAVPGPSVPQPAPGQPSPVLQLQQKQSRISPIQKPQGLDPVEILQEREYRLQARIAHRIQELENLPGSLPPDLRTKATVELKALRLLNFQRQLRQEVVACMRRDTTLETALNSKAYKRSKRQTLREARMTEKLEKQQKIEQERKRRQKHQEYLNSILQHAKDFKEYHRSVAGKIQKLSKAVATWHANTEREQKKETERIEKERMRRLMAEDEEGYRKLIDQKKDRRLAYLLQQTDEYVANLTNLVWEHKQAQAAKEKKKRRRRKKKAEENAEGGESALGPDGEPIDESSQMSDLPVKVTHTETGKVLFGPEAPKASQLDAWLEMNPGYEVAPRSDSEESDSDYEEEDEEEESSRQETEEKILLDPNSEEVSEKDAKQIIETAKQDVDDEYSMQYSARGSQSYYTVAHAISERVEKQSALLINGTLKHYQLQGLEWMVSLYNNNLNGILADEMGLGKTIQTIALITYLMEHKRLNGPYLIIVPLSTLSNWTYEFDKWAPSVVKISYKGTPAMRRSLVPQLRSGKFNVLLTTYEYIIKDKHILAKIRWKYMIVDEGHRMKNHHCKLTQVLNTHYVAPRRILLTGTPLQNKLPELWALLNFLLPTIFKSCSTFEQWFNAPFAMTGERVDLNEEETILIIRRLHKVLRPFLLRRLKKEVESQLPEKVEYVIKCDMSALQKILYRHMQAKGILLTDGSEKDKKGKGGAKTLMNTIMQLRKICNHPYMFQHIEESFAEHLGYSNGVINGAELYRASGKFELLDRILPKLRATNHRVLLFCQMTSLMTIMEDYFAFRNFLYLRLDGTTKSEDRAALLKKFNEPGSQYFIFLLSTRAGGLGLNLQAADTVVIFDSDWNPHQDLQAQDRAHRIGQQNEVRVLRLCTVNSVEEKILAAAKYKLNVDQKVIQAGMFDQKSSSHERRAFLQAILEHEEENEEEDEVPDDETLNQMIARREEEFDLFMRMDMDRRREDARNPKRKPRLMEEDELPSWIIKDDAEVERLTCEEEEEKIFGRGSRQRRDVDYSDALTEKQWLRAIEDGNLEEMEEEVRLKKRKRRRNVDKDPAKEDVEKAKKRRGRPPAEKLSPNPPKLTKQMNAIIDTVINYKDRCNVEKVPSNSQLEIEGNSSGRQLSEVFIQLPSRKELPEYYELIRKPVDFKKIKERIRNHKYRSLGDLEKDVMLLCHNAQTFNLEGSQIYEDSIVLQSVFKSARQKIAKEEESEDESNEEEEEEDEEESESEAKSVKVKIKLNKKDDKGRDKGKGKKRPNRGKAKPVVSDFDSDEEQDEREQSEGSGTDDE

For the molecule `Cc1ncsc1-c1ccc([C@H](CN2CCOCC2)NC(=O)[C@@H]2C[C@@H](O)CN2C(=O)[C@H](C2CCCCC2)n2cc([C@H]3CC[C@H](CN4CCC[C@H](c5ccc6c(c5)-n5c(nc(=O)c7c(Cl)cccc75)C65CCCCC5)C4)CC3)nn2)cc1` [Compound A131, (2S,4R)-1-((2S)-2-(4-((1r,4S)-4-((3-(4′-chloro-5′-oxo-5′H-spiro[cyclohexane-1,7′-indolo[1,2-a]quinazolin]-10′-yl)piperidin-1-yl)methyl)cyclohexyl)-1H-1,2,3-triazol-1-yl)-2-cyclohexylacetyl)-4-hydroxy-N—((R)-1-(4-(4-methylthiazol-5-yl)phenyl)-2-morpholinoethyl)pyrrolidine-2-carboxamide], at SMARCA4, the DC50 is over 1000 nM and the Dmax was under 50%. In addition, at SMARCA2, the DC50 lay within 10 to 100 nM and the Dmax fell in the range of 70 to 90%.
In the same order, the values of `Cc1ncsc1-c1ccc([C@H](C)NC(=O)[C@@H]2C[C@@H](O)CN2C(=O)[C@H](C2CCN(C(=O)[C@H]3CC[C@H](CN4CCC(c5ccc6c(c5)-n5c(nc(=O)c7c(Br)cccc75)C65CCCCC5)CC4)CC3)CC2)n2cc(C3CC3)nn2)cc1` [Compound A132, (2S,4R)-1-((S)-2-(1-((1r,4S)-4-((4-(4′-bromo-5′-oxo-5′H-spiro[cyclohexane-1,7′-indolo[1,2-a]quinazolin]-10′-yl)piperidin-1-yl)methyl)cyclohexane-1-carbonyl)piperidin-4-yl)-2-(4-cyclopropyl-1H-1,2,3-triazol-1-yl)acetyl)-4-hydroxy-N—((S)-1-(4-(4-methylthiazol-5-yl)phenyl)ethyl)pyrrolidine-2-carboxamide] are over 1000 nM, under 50%, under 10 nM and over 90%.
For `CC1(C)c2ccc(C3CCN(C[C@H]4CC[C@H](c5cn([C@H](C(=O)N6C[C@H](O)C[C@H]6C(=O)N[C@@H](CN6CCOCC6)c6ccc(-c7scnc7C(=O)O)cc6)C6CCOCC6)nn5)CC4)CC3)cc2-n2c1nc(=O)c1c(Cl)cccc12` [Compound A133, 5-(4-((R)-1-((2S,4R)-1-((S)-2-(4-((1r,4S)-4-((4-(4-chloro-7,7-dimethyl-5-oxo-5,7-dihydroindolo[1,2-a]quinazolin-10-yl)piperidin-1-yl)methyl)cyclohexyl)-1H-1,2,3-triazol-1-yl)-2-(tetrahydro-2H-pyran-4-yl)acetyl)-4-hydroxypyrrolidine-2-carboxamido)-2-morpholinoethyl)phenyl)thiazole-4-carboxylic acid], the DC50 on SMARCA4 is over 1000 nM; at SMARCA2 it was 100 to 1000 nM. For the same molecule, the Dmax at SMARCA4 was under 50%; on SMARCA2 it was 70 to 90%.
Consider `O=C(O)c1ncsc1-c1ccc([C@H](CN2CCOCC2)NC(=O)[C@@H]2C[C@@H](O)CN2C(=O)[C@H](C2CCOCC2)n2cc([C@H]3CC[C@H](CN4CCC(c5ccc6c(c5)-n5c(nc(=O)c7c(Cl)cccc75)C65CCCCC5)CC4)CC3)nn2)cc1` [Compound A134, 5-(4-((R)-1-((2S,4R)-1-((S)-2-(4-((1r,4S)-4-((4-(4′-chloro-5′-oxo-5′H-spiro[cyclohexane-1,7′-indolo[1,2-a]quinazolin]-10′-yl)piperidin-1-yl)methyl)cyclohexyl)-1H-1,2,3-triazol-1-yl)-2-(tetrahydro-2H-pyran-4-yl)acetyl)-4-hydroxypyrrolidine-2-carboxamido)-2-morpholinoethyl)phenyl)thiazole-4-carboxylic acid], for which the figures for the DC50 on SMARCA4 and at SMARCA2 were over 1000 nM and 100 to 1000 nM, respectively. For the same molecule, the Dmax at SMARCA4 is under 50%; at SMARCA2 it was 70 to 90%.
For `Cc1ncsc1-c1ccc([C@@H](NC(=O)[C@@H]2C[C@@H](O)CN2C(=O)[C@@H](n2cc(C3CC3)nn2)C(C)(C)C)C(=O)N2CCC(c3ccc4c(c3)-n3c(nc(=O)c5c(Br)cccc53)C43CCCCC3)CC2)cc1` [Compound A135, (2S,4R)—N—((R)-2-(4-(4′-bromo-5′-oxo-5′H-spiro[cyclohexane-1,7′-indolo[1,2-a]quinazolin]-10′-yl)piperidin-1-yl)-1-(4-(4-methylthiazol-5-yl)phenyl)-2-oxoethyl)-1-((S)-2-(4-cyclopropyl-1H-1,2,3-triazol-1-yl)-3,3-dimethylbutanoyl)-4-hydroxypyrrolidine-2-carboxamide] the same measures were under 10 nM, under 10 nM, over 90% and over 90%.
As to `Cc1ncsc1-c1ccc([C@@H](NC(=O)[C@@H]2C[C@@H](O)CN2C(=O)[C@@H](n2cc(C3CC3)nn2)C(C)(C)C)C(=O)N2CCC(CN3CCC(c4ccc5c(c4)-n4c(nc(=O)c6c(Br)cccc64)C54CCCCC4)CC3)CC2)cc1` [Compound A136, (2S,4R)—N—((R)-2-(4-((4-(4′-bromo-5′-oxo-5′H-spiro[cyclohexane-1,7′-indolo[1,2-a]quinazolin]-10′-yl)piperidin-1-yl)methyl)piperidin-1-yl)-1-(4-(4-methylthiazol-5-yl)phenyl)-2-oxoethyl)-1-((S)-2-(4-cyclopropyl-1H-1,2,3-triazol-1-yl)-3,3-dimethylbutanoyl)-4-hydroxypyrrolidine-2-carboxamide], the DC50 on SMARCA4 and at SMARCA2 was under 10 nM throughout. For the same molecule, the Dmax on SMARCA4 and on SMARCA2 was over 90% throughout.
In the case of `Cc1ncsc1-c1ccc([C@@H](NC(=O)[C@@H]2C[C@@H](O)CN2C(=O)[C@@H](n2cc(C3CC3)nn2)C(C)(C)C)C(=O)N2CCC3(CCC(CN4CCC(c5ccc6c(c5)-n5c(nc(=O)c7c(Br)cccc75)C65CCCCC5)CC4)CC3)CC2)cc1` [Compound A137, (2S,4R)—N—((R)-2-(9-((4-(4′-bromo-5′-oxo-5′H-spiro[cyclohexane-1,7′-indolo[1,2-a]quinazolin]-10′-yl)piperidin-1-yl)methyl)-3-azaspiro[5.5]undecan-3-yl)-1-(4-(4-methylthiazol-5-yl)phenyl)-2-oxoethyl)-1-((S)-2-(4-cyclopropyl-1H-1,2,3-triazol-1-yl)-3,3-dimethylbutanoyl)-4-hydroxypyrrolidine-2-carboxamide], the half-maximal degradation concentration (DC50) on SMARCA4 and on SMARCA2 was under 10 nM throughout. For the same molecule, the Dmax at SMARCA4 was 70 to 90%; at SMARCA2 it was over 90%.
For `Cc1ncsc1-c1ccc([C@@H](NC(=O)[C@@H]2C[C@@H](O)CN2C(=O)[C@@H](n2cc(C3CC3)nn2)C(C)(C)C)C(=O)N2CCC(N3CCC(c4ccc5c(c4)-n4c(nc(=O)c6c(Br)cccc64)C54CCCCC4)CC3)CC2)cc1` [Compound A138, (2S,4R)—N—((R)-2-(4-(4′-bromo-5′-oxo-5′H-spiro[cyclohexane-1,7′-indolo[1,2-a]quinazolin]-10′-yl)-[1,4′-bipiperidin]-1′-yl)-1-(4-(4-methylthiazol-5-yl)phenyl)-2-oxoethyl)-1-((S)-2-(4-cyclopropyl-1H-1,2,3-triazol-1-yl)-3,3-dimethylbutanoyl)-4-hydroxypyrrolidine-2-carboxamide], at SMARCA4, the DC50 was under 10 nM and the Dmax is over 90%. Besides, at SMARCA2, the DC50 was under 10 nM and the Dmax was over 90%.
As to `Cc1ncsc1-c1ccc([C@@H](NC(=O)[C@@H]2C[C@@H](O)CN2C(=O)[C@@H](n2cc(C3CC3)nn2)C(C)(C)C)C(=O)N2CCC3(CCC(N4CCC(c5ccc6c(c5)-n5c(nc(=O)c7c(Br)cccc75)C65CCCCC5)CC4)CC3)CC2)cc1` [Compound A139, (2S,4R)—N—((R)-2-(9-(4-(4′-bromo-5′-oxo-5′H-spiro[cyclohexane-1,7′-indolo[1,2-a]quinazolin]-10′-yl)piperidin-1-yl)-3-azaspiro[5.5]undecan-3-yl)-1-(4-(4-methylthiazol-5-yl)phenyl)-2-oxoethyl)-1-((S)-2-(4-cyclopropyl-1H-1,2,3-triazol-1-yl)-3,3-dimethylbutanoyl)-4-hydroxypyrrolidine-2-carboxamide], the DC50 on SMARCA4 and at SMARCA2 was under 10 nM each time. Besides, the Dmax at SMARCA4 is 70 to 90%; on SMARCA2, over 90%.
As for `Cc1ncsc1-c1ccc([C@H](CC(=O)N2CCC(c3ccc4c(c3)-n3c(nc(=O)c5c(Cl)cccc53)C43CCCCC3)CC2)NC(=O)[C@@H]2C[C@@H](O)CN2C(=O)[C@@H](n2cc(C3CC3)nn2)C(C)(C)C)cc1` [Compound A140, (2S,4R)—N—((S)-3-(4-(4′-chloro-5′-oxo-5′H-spiro[cyclohexane-1,7′-indolo[1,2-a]quinazolin]-10′-yl)piperidin-1-yl)-1-(4-(4-methylthiazol-5-yl)phenyl)-3-oxopropyl)-1-((S)-2-(4-cyclopropyl-1H-1,2,3-triazol-1-yl)-3,3-dimethylbutanoyl)-4-hydroxypyrrolidine-2-carboxamide], the DC50 at SMARCA4 was over 1000 nM; on SMARCA2, 10 to 100 nM. Also, the results for the Dmax at SMARCA4 and at SMARCA2 were under 50% and 70 to 90%, respectively.
